Laboratory results from patent US10189824B2, “Pyrimidine-diamine dual HSP90/TRAP1 inhibitors” (CalAsia Pharmaceuticals, Inc., priority 2014, dated 2019).

Assays:
U251MG cells [1] = test: Cell viability assay, ATP quantitation (ADP-Glo); type: cell-based; settings: Homo sapiens, U-251; 72 h at 37° C.; FIG. 1B
Description: (§1) U251MG cells were maintained at 37° C. and 5% CO2 in RPMI media supplemented with glutamax and containing 10% heat-inactivated fetal bovine serum and 1% penicillin/streptomycin (Life Sciences).
(§2) A cell counting kit (CCK-8 assay kit, Dojindo) and an ADP-Glo assay (Life Technologies) were used to quantitate the effects of test compounds on cell viability. U251MG cells were seeded into 96 well tissue culture plates and incubated for 16 h at 37° C. with 5% CO2. Increasing concentrations of test compounds were added to the wells from DMSO-containing stock solutions to a final DMSO concentration of 0.05% and incubated for 72 hr at 37° C. CCK-8 kit reagent or ADP-GLO reagent were then added to the wells and absorbance was measured at 450 nm (for the CCK assay) using a Synergy HT micro-titer plate reader (Biotek) or luminescence was measured (for the ADP-GLO assay) using a POLARstar Omega micro-titer plate reader (BMG).

[2] = test system: Akt1 levels in U251MG cells; test: Biomarker quantitation by ELISA, Akt1; type: cell-based
Description: (§3) U251 cells were plated in 6 well format culture dishes overnight at 37° C. with 5% CO2 and then treated with increasing concentrations of test compounds for 48 h at 37° C. with 5% CO2. Quantification of total Akt1, EGFR, and Hsp70 in cell lysates was accomplished using ELISA kits (R&D Systems) according to the manufacturer's recommendations and utilizing a Synergy HT micro-titer plate reader (Biotek). Cell lysates were prepared as recommended in the kit procedure. Protein concentrations of lysates clarified using centrifugation were determined using a Bradford assay (Thermo Scientific), and the values were used to normalize the biomarker values.

[3] = test system: EGFR levels in U251MG cells; test: Biomarker quantitation by ELISA, EGFR; type: cell-based; settings: 16 uM, 48 h
Description: as §3

U251MG cells [4] = test: Cell viability assay, cellular dehydrogenase activity (CCK-8); type: cell-based; settings: Homo sapiens, U-251; 72 h at 37° C.; FIG. 1A
Description: as §1, §2

MDA-MB-231 cells = test: TMRE assay, MDA-MB-231 cell mitochondrial integrity; type: cell-based; settings: 2 hours or 4 hours
Description: (§4) Mitochondrial integrity was evaluated using Tetramethylrhodamine ethyl ester (TMRE) assay. A TMRE assay kit (Abcam) was used to evaluate Hsp90/TRAP1 inhibitor-induced changes in mitochondrial membrane potential. […] TMRE (200 nM) was then added to wells for 30 min and monitored for changes in fluorescence activity using a fluorescence plate reader (ex544/em 590) after washing the cells. Specific TMRE fluorescence was calculated by comparison to matched wells pretreated with the depolarizing proton ionophore carbonyl cyanide 4-(trifluoromethoxy)phenylhydrazone (FCCP) at 20 uM 10 min prior to addition of TMRE. For mitochondria assays, mitochondria was isolated using a kit from Thermoscientific and loaded with 0.1 mM TMRE. TMRE-loaded mitochondria (2 μg per well) were incubated with test compounds and monitored kinetically at 30° C. for changes in fluorescence using a flurorescence plate reader (ex 544/em 590) (FIGS. 6A, 9A and 12).

GBM39 = test: Cellular efficacy in Mayo Clinic GBM PDX cell line GBM39; type: cell-based
Description: (§5) Short-term explant cultures from PDX models were seeded into 96-well Perfecta3D hanging drop plates to form a single spheroid in each well after 2 days. The spheroids were transferred to a round bottom 96 well plate by centrifugation and then incubated with graded concentrations of test compound (8 spheroids per compound concentration). Spheroid volumes were monitored every 6 hours over the course of 5 days using the IncuCyte system (Essen BioScience, MI, US) to provide a growth curve akin to a tumor regrowth assay.

[5] = test system: mitochondria isolated from HEI193 cells; test: Analysis of drug accumulation in the mitochondria; type: in vitro ADME, human; settings: 20 uM
Description: Mitochondria (100 μg) isolated from MDA-MB-231 and […] tumor cell lines were incubated with 20 μM CAP01088 for 30 mins at 30° C. in mitochondrial incubation buffer (MIB: 0.2M sucrose, 10 mM Tris-MOPS, pH 7.4, 5 mM succinaye, 1 mM Pi, 2 μM rotenone, and 10 μM EGTA with modifications as needed). The mitochondria were chilled on ice and collected by centrifugation at 8000 g for 10 min. The supernatant was collected and the mitochondrial pellet was washed twice with MIB and dissolved in lysis buffer (acetonitrile/methanol, 3:1). The concentration of CAP01088 in supernatant and mitochondrial extract was analyzed using a Waters HPLC/Mass spectrometer (FIGS. 6B and 9B).

HEI193 cells = test: TMRE assay, HEI193 cell mitochondrial integrity; type: cell-based, human; settings: observed as early as 2 hours after treatment
Description: as §4

[6] = test system: Hsp90 client proteins (Akt1, ERK1) in HEI193; test: Cellular biomarker assays (Akt1, ERK1 ELISA) in HEI193; type: cell-based, human; settings: 48 hour treatment
Description: Cellular biomarker assays: Cells were cultured in culture medium (RPMI-glutamax, 10% FCS, 100 units/ml penicillin, and 100 μg/ml streptomycin). Cells were passaged after lifting using 0.25% trypsin/EDTA, and 3×10^5 cells were seeded in each well of six well plates (total volume 2.5 mL/well). After the cells were cultured for 24 hours, increasing concentrations of Hsp90 inhibitor were added to wells in triplicate from DMSO-containing stock solutions and mixed by gently by stirring. Final DMSO concentration in all wells was 0.25%. The treated cells were then cultured for 48 hours prior to lysate preparation. The culture media was removed from wells, and the wells were washed twice with DPBS containing 1 mM CaCl2 and 0.5 mM MgCl2. […] The protein concentration in the cell lysates was determined using the BCA protein assay kit used according to the manufacturer's recommendations. […] Protein concentrations were determined using a micro-titer plate reader (Model # Synergy HT; BioTek Inc., Winooski, Vt.).
Akt1 and ERK1 levels in the cell lysates were measured using kits from R&D Systems used according to the manufacturer's recommendations. […] Akt1 and ERK1 levels were determined using a micro-titer plate reader (Model # Synergy HT; BioTek Inc., Winooski, Vt.) (FIGS. 5 and 8).

GBM10 = test: Cellular efficacy in Mayo Clinic GBM PDX cell line GBM10; type: cell-based
Description: as §5

EC50 (GBM39) | Accumulation in isolated mitochondria compared to culture medium [5] | EC50 (GBM10) | Structure (SMILES) | IC50 (U251MG cells [1]) | Reduction of Akt1 levels ([2]; 15.6 uM, 48 h) | IC50 ([2]; Homo sapiens, U-251, 48 h, read-out: Akt1 level reduction IC50) | Reduction of EGFR levels [3] | IC50 (U251MG cells [4]) | Effect on TMRE fluorescence of MDA-MB-231 cells (MDA-MB-231 cells) | Effect on TMRE fluorescence in HEI193 cells (HEI193 cells) | Effect on Akt1 and ERK1 levels, HEI193 [6]
 |  |  | COc1c(C)cnc(CN(CCc2ccccn2)c2cc(Cl)nc(N)n2)c1C [Compound 1, 6-chloro-4-N-[(4-methoxy-3,5-dimethylpyridin-2yl)methyl]-4-N-[2-(pyridine-2-yl)ethyl]pyrimidine-2,4-amine] | 2500 nM | 79% | 2400 nM | 71% | 1720 nM |  |  | 
220 nM | greater than 6 fold | 280 nM | COc1c(C)cnc(CN(CC2(c3ccc(F)cc3)CCOCC2)c2cc(Cl)nc(N)n2)c1C [Compound A, 6-chloro-4-N-{[4-(4-fluorophenyl)oxan-4-yl]methyl}-4-N-[(4-methoxy-3,5-dimethylpyridin-2-yl)methyl]pyrimidine-2,4-diamine] |  |  |  |  |  | dose-dependent decrease | dose-dependent decrease | reduction of Hsp90 client proteins
